Measurements published in article PMC3608651, “A Broad Profile of Co-Dominant Epitopes Shapes the Peripheral Mycobacterium tuberculosis Specific CD8+ T-Cell Immune Response in South African Patients with Active Tuberculosis” (PLoS ONE, 2013).
Like-named read-outs stand apart in the source and are kept apart here. Marks after values point to notes of the source that are not given here.

Key:
HLA-A*02:01 [1] = molecular target: T1, HLA-A*02:01 (Homo sapiens, UniProt P04439, D140Y/D185E/D98H/E176V/E277Q/G131W/G231S/I119V/I121R/I166T/I218V/L300P/L318F/N151K/N90K/P208A/P217A/Q86G/Q94H/R138H/R169H/T345S); format: binding; conditions: percent relative the binding of positive control peptide […]; plate-bound monomer 0.5 µg/ml; duplicated experiments; positive binder >40%
HLA-A*24:02 [2] = molecular target: T2, HLA-A*24:02 (Homo sapiens, UniProt P04439, D101N/D140Y/D185E/E176V/E190D/F33S/G103R/G107R/I119L/I121M/I306V/K335N/L105A/L180Q/L300P/N151K/N90K/Q86E/Q94H/R106L/R138H/R89G/T104I/T345S/V100E/W191G/Y123F); format: binding; conditions: percent relative the binding of positive control peptide […]; duplicated experiments; positive binder >40%
HLA-A*30:01 [3] = molecular target: T3, HLA-A*30:01 (Homo sapiens, UniProt P04439, D140H/D185E/E176W/F33S/G80R/H175R/K168Q/R138E/R41S); format: binding; conditions: percent relative the binding of positive control peptide […]; duplicated experiments; positive binder >40%
HLA-A*30:01 [4] = molecular target: T3, HLA-A*30:01; test: affinity assay (ED50); format: binding; conditions: peptide titrated 10−4 to 10−9 M
HLA-A*30:01 [5] = molecular target: T3, HLA-A*30:01; test: off-rate assay (t1/2); format: binding; conditions: time points 0-8 h
HLA-A*30:02 [6] = molecular target: T4, HLA-A*30:02 (Homo sapiens, UniProt P04439, D101N/D140H/D185E/E176R/F33S/G80R/H175R/K168Q/Q94H/R138E/R41S/V100E); format: binding; conditions: percent relative the binding of positive control peptide […]; duplicated experiments; positive binder >40%
HLA-A*68:01 [7] = molecular target: T5, HLA-A*68:01 (Homo sapiens, UniProt P04439, A269V/D185E/E176V/E277Q/E87N/F33Y/G231S/I121M/I166T/I218V/L180W/L300P/L318F/N151K/P208A/P217A/Q86R/R169H/T345S); format: binding; conditions: percent relative the binding of positive control peptide […]; duplicated experiments; positive binder >40%
HLA-A*68:01 [8] = molecular target: T5, HLA-A*68:01; format: binding
HLA-A*68:01 [9] = molecular target: T5, HLA-A*68:01; format: binding; conditions: time points 0-8 h
HLA-B*07:02 [10] = molecular target: T6, HLA-B*07:02 (Homo sapiens, UniProt P01889); format: binding; conditions: percent relative the binding of positive control peptide […]; duplicated experiments; positive binder >40%
HLA-B*07:02 [11] = molecular target: T6, HLA-B*07:02; test: affinity assay (ED50); format: binding; conditions: peptide titrated 10−4 to 10−9 M
HLA-B*07:02 [12] = molecular target: T6, HLA-B*07:02; test: off-rate assay (t1/2); format: binding; conditions: time points 0-8 h
HLA-B*58:01 [13] = molecular target: T7, HLA-B*58:01 (Homo sapiens, UniProt P01889, A329T/C349S/D201E/D98Y/E176V/E187L/E204Q/E69T/G107R/I218V/I90N/K202T/L105A/L119I/N104I/N87E/Q89R/Q94S/R106L/R155S/R180L/R86G/S101N/S121R/S35A/S48A/T118I/V127L/V306I/V36M/Y140S/Y91M); format: binding; conditions: percent relative the binding of positive control peptide […]; duplicated experiments; positive binder >40%
HLA-C*07:01 [14] = molecular target: T8, HLA-C*07:01 (Homo sapiens, UniProt P10321, K90N/S123Y); format: binding; conditions: percent relative the binding of positive control peptide […]; duplicated experiments; positive binder >40%
HLA-A*02:01 [15] = molecular target: T1, HLA-A*02:01; format: binding; conditions: […]; peptide quantity for 50% binding saturation
HLA-A*02:01 [16] = molecular target: T1, HLA-A*02:01; format: binding; conditions: time points 0-8 h; time when 50% of peptide has dissociated
HLA-A*30:02 [17] = molecular target: T4, HLA-A*30:02; format: binding
HLA-A*30:02 [18] = molecular target: T4, HLA-A*30:02; format: binding; conditions: time points 0-8 h
HLA-C*07:01 [19] = molecular target: T8, HLA-C*07:01; test: affinity assay (ED50); format: binding
HLA-C*07:01 [20] = molecular target: T8, HLA-C*07:01; test: off-rate assay (t1/2); format: binding; conditions: time points 0-8 h
HLA-A*30:01 [21] = molecular target: T3, HLA-A*30:01; conditions: percent relative the binding of a positive control peptide; wild-type epitopes marked **; cited from earlier work
HLA-A*30:01 [22] = molecular target: T3, HLA-A*30:01; conditions: wild-type epitopes marked **; cited from earlier work
HLA-A*30:01 [23] = molecular target: T3, HLA-A*30:01; conditions: wild-type epitopes marked **; cited from earlier work; remark: listed apart in the source
HLA-A*30:02 [24] = molecular target: T4, HLA-A*30:02; conditions: percent relative the binding of a positive control peptide; wild-type epitopes marked **; cited from earlier work
HLA-A*30:02 [25] = molecular target: T4, HLA-A*30:02; conditions: wild-type epitopes marked **; cited from earlier work
HLA-A*30:02 [26] = molecular target: T4, HLA-A*30:02; conditions: wild-type epitopes marked **; cited from earlier work; remark: listed apart in the source
HLA-A*24:02 [27] = molecular target: T2, HLA-A*24:02; format: binding
HLA-A*24:02 [28] = molecular target: T2, HLA-A*24:02; format: binding; conditions: time points 0-8 h
HLA-B*58:01 [29] = molecular target: T7, HLA-B*58:01; format: binding
HLA-B*58:01 [30] = molecular target: T7, HLA-B*58:01; format: binding; conditions: time points 0-8 h

Row | Substance | Bind A*02:01 (HLA-A*02:01 [1]) [%] | Bind A*24:02 (HLA-A*24:02 [2]) [%] | Bind A*30:01 (HLA-A*30:01 [3]) [%] | Aff A*30:01 (ED50) (HLA-A*30:01 [4]) | O-rate A*30:01 (t1/2) (HLA-A*30:01 [5]) [h] | Bind A*30:02 (HLA-A*30:02 [6]) [%] | Bind A*68:01 (HLA-A*68:01 [7]) [%] | Aff A*68:01 (ED50) (HLA-A*68:01 [8]) | O-rate A*68:01 (t1/2) (HLA-A*68:01 [9]) [h] | Bind B*07:02 (HLA-B*07:02 [10]) [%] | Aff B*07:02 (ED50) (HLA-B*07:02 [11]) | O-rate B*07:02 (t1/2) (HLA-B*07:02 [12]) [h] | Bind B*58:01 (HLA-B*58:01 [13]) [%] | Bind C*07:01 (HLA-C*07:01 [14]) [%] | Aff A*02:01 (ED50) (HLA-A*02:01 [15]) | O-rate A*02:01 (t1/2) (HLA-A*02:01 [16]) [h] | Aff A*30:02 (ED50) (HLA-A*30:02 [17]) | O-rate A*30:02 (t1/2) (HLA-A*30:02 [18]) [h] | Aff C*07:01 (ED50) (HLA-C*07:01 [19]) | O-rate C*07:01 (t1/2) (HLA-C*07:01 [20]) [h] | further results
1 | WL S ANR AV K | 13 | 40 | 179 | 1E -06 M | 0.5 | 6 | 139 | 2E -07 M | 2.1 | 49 | 2E -06 M | 0.7 | 1 | 16 |  |  |  |  |  |  | 
2 | LSMAGSSAM | 72 | 14 | 0 |  |  | 79 | 51 | 1E -06 M | 2.2 | 92 | 3E -07 M | 2.6 | 0 | 71 | 2e-07 M | 1.4 | 3E -06 M | 1.1 | 3E -06 M | 1.2 | 
3 | LVRAYHAMS [Rv0288_65–73wt] |  |  |  |  |  |  |  |  |  |  |  |  |  |  |  |  |  |  |  |  | Bind A*30:01 (HLA-A*30:01 [21]): 158** percent; Aff A*30:01 (ED50) (HLA-A*30:01 [22]): 2000 nM; O-rate A*30:01 (t1/2) (HLA-A*30:01 [23]): 1.8 h; Bind A*30:02 (HLA-A*30:02 [24]): 75** percent; Aff A*30:02 (ED50) (HLA-A*30:02 [25]): 2000 nM; O-rate A*30:02 (t1/2) (HLA-A*30:02 [26]): 1.0 h
4 | VANNT RLWV | 77 | 58 | 141 | 3E -08 M | 0.5 | 171 | 3 |  |  | 61 | 6e-07 M | 0.7 | 49 | 69 | 5E -07 M | 2.5 | 1e-07 M | 0.8 | 3E -07 M | 0.6 | Aff A*24:02 (ED50) (HLA-A*24:02 [27]): 4000 nM; O-rate A*24:02 (t1/2) (HLA-A*24:02 [28]): 0.3 h; Aff B*58:01 (ED50) (HLA-B*58:01 [29]): 10 nM; O-rate B*58:01 (t1/2) (HLA-B*58:01 [30]): 1.9 h
